US20260283988A1, “FERROPTOSIS INHIBITORS” (priority 2023, published 2026)
Like-named read-outs stand apart in the source and are kept apart here.

What was measured:
HT-1080 [1] = assay: Flow cytometry, 4-Hydroxynonenal (4-HNE) immunostaining; type: cell-based, Human; conditions: 300 nM RSL3; 6 μM Seratrodast, 2 h
Procedure: (§1) HT1080 cells were grown in 6-well plates (200,000 cells per well) and incubated for 24 h. For staining with BODIPY 581/591 C11 (Thermo Fisher Scientific), cells were treated with RSL3, and Ferrostatin-1 or Seratrodast for 2 h, then BODIPY was added into the wells to a final concentration of 2 μM. After 30 min incubation, cells were detached using Trypsin and washed two times with PBS. Between the wash steps, cells were centrifuged at 500×g for 5 minutes. After the final washing step, cell pellets were resuspended in 300 μl PBS and 10,000 events per condition were analyzed in the BL-1 channel of an Attune acoustic flow cytometer (Applied Biosystems). For detection of 4-Hydroxynonenal (4-HNE), HT-1080 were induced with RSL3, and co-treated with Ferrostatin-1 or Seratrodast for 2 h before they were detached using Trypsin. Cell pellets were incubated in 10% normal goat serum (Thermo Fisher Scientific) for 30 min on ice. Subsequently, cells were incubated with anti-4-HNE antibody (1:50 dilution in 1% BSA in PBS, ab46545, Abcam) for 1 h on ice. […] For flow cytometry, cells were collected in 300 μl PBS and 10,000 events per condition were analyzed in an Attune acoustic flow cytometer (Applied Biosystems), using the BL-1 channel. FlowJo™ v10.8.1 (BD Life Sciences) was used for creating histograms and analyzing fluorescence intensity.

[2] = system: Mouse Embryonic Fibroblasts (MEF); assay: Necroptosis assay, TNFα + zVAD-FMK + LCL161, cell viability; type: cell-based
Procedure: For detecting necroptosis, MEF were treated with TNFα, zVAD-FMK and LCL161 before addition of Seratrodast or Necrostatin-1. Cell viability was measured after 18 hours by adding CellTiter-Glo® 2.0 Reagent (Promega) according to the manufacturer's instruction and luminescence was read out.

[3] = Cytotoxicity, cell viability assay; type: cell-based, Human; conditions: human, ht-1080 cells, * = signal quenching at higher concentration, toxicity might be less than indicated; read-out: cytotoxic IC50
Procedure: (§2) After 24 h of growth, cells were treated with 10 or 12-point serial dilutions of compounds in indicated concentrations for 18 h.

[4] = system: HT-1080-derived spheroids; assay: 3D spheroid formation and imaging (roundness); type: cell-based, Human; conditions: 200 nM RSL3; 2 μM Fer-1; 6 μM Seratrodast, 48 h
Procedure: Over a period of 48 h spheroids were formed and subsequently treated with RSL3, and Ferrostatin-1 or Seratrodast. […] Images were acquired using an Operetta high-content imaging system (PerkinElmer) and analyses were conducted with the Columbus software (PerkinElmer). For analysis, spheroids were detected as “Image region” and morphology properties were calculated (roundness).

[5] = Cell-free BODIPY assay with AAPH; type: biochemical; conditions: 25 μM compound; 7.5 mM AAPH
Procedure: As a control, the same amount of DMSO was diluted in 150 μl PBS. […] For the non-oxidized control, one sample was prepared as DMSO only without AAPH. All three solutions were mixed equally and incubated for 30 min at room temperature in the dark.

HT-1080 [6] = assay: TBARS assay (MDA levels); type: cell-based, Human; conditions: 250 nM RSL3; 6 μM Seratrodast, 2.5 h
Procedure: 2 million HT-1080 cells were seeded into 150 mm dishes and grown for 48 hours. Ferroptosis was induced with RSL3 for 2.5 hours and cells were co-treated with Ferrostatin-1 or Seratrodast. Cells were detached by 0.05% Trypsin-EDTA (Thermo Fisher Scientific) and cell number was adjusted to the sample with the lowest cell count. For measuring MDA levels, TBARS (TCA Method) Assay Kit (Cayman Chemical, 700870) was used according to manufacturer's instruction. Fluorescence was detected at 530 nm/550 nm in an EnVision 2104 Multilabel plate reader (PerkinElmer).

HT-1080 [7] = assay: Flow cytometry, BODIPY 581/591 C11 lipid peroxidation sensor; type: cell-based, Human; conditions: 200 nM RSL3; 6 μM Seratrodast, 2.5 h
Procedure: as §1

HT-1080 [8] = assay: Ferroptosis inhibition, cell viability assay (CellTiter-Glo); type: cell-based, Human; conditions: for IC50: read-out: IC50 (Ferroptosis inhibition); for cellular efficacy/toxicity window: cytotoxic IC50 versus ferroptosis inhibition IC50, 1080 min
Procedure: Cell lines: Human fibrosarcoma cell line HT-1080 and immortalized Mouse Embryonic Fibroblasts (MEF). MEFs were a gift from Daniel Krappmann, HT-1080 were purchased from ATCC and both cell lines were grown in Dulbecco's Modified Eagle's medium (Thermo Fisher Scientific, 41966-029) supplemented with 10% fetal bovine serum (FBS, Thermo Fisher Scientific), 1% Penicillin-Streptomycin (Thermo Fisher Scientific) and 1% nonessential amino acids (MEM NEAA, Thermo Fisher Scientific). Cells were grown at 37° C. and 5% CO2.
HT-1080 were seeded into 384-well plates (CulturPlates, PerkinElmer) with a density of 750 cells per well. After 24 h of growth, cells were treated with 10 or 12-point serial dilutions of compounds in indicated concentrations for 18 h. Viability was detected by using CellTiter-Glo® 2.0 Regent (Promega) according to the manufacturer's instruction and luminescence was read out in an EnVison 2104 Multilabel plate reader (PerkinElmer).

HT-1080 [9] = assay: Apoptosis assay, Staurosporine-induced Caspase 3/7 activity (Caspase-Glo 3/7); type: cell-based, Human
Procedure: For detecting apoptosis, HT-1080 were treated with Staurosporine before addition of Seratrodast or zVAD-FMK. Caspase 3/7 activity was measured 18 hours later via Caspase-Glo® 3/7 Assay Reagent (Promega) according to the manufacturer's instruction. Cells were incubated for 45 min at room temperature and luminescence was measured.

HT-1080 [10] = assay: Cytotoxicity, cell viability assay; type: cell-based, Human; conditions: * = signal quenching at higher concentration, toxicity might be less than indicated; 1080 min; read-out: cytotoxic IC50
Procedure: as §2

| Structure (SMILES) | RSL3-induced 4-hydroxynonenal (4-HNE) levels (HT-1080 [1]) | Necroptosis inhibition [2] | inhibition of necroptosis ([2]; 6 μM, 20 ng/ml TNFα + 10 μM Z-VAD-FMK + 10 μM LCL161 for 18 h) | CC50 at 18 h [3] [nM] | inhibition of ferroptosis in 3D spheroid model (spheroid roundness) [4] | oxidative fluorescence induced by AAPH (cell-free C11-BODIPY) [5] | RSL3-induced malondialdehyde (MDA) levels (HT-1080 [6]) | RSL3-mediated peroxidation of the C11-BODIPY sensor (HT-1080 [7]) | suppression of ferroptosis (cell viability) (HT-1080 [8]; 100 nM RSL3 or 1.5 μM IKE for 18 h) | inhibition of ferroptosis induced by RSL3, IKE, FINO2 and FIN56 (HT-1080 [8]; 6 μM Seratrodast, 2 μM Fer-1, 18 h) | IC50 (HT-1080 [8]; Homo sapiens, HT-1080, based on the assays of example 1) [nM] | cellular efficacy/toxicity window (HT-1080 [8]) | Apoptosis inhibition (HT-1080 [9]) | inhibition of apoptosis (HT-1080 [9]; 6 μM, 1 μM Staurosporine, 18 h) | CC50 (HT-1080 [10]) [nM] | IC50 (HT-1080 [8]; based on the assays of example 1) [nM] |
| --- | --- | --- | --- | --- | --- | --- | --- | --- | --- | --- | --- | --- | --- | --- | --- | --- |
| CC1=C(C)C(=O)C(C(CCCCCC(=O)O)c2ccccc2)=C(C)C1=O (centres unmarked) [iQFerr01, Seratrodast, reference compound] | reduced | no | does not inhibit necroptosis | 57900 | fully inhibited ferroptosis-based spheroid destruction | significantly reduced oxidative fluorescence | eliminated levels of malondialdehyde | largely reduced | dose-dependently suppresses ferroptosis | able to suppress ferroptosis induced by all four FINs | 290 | 200-fold | no | does not inhibit apoptosis | – | – |
| Cc1ccc(NC2=C(Cl)C(=O)c3ccccc3C2=O)c(C)c1 [iQFerr14, 2-chloro-3-(2,4-dimethylanilino)-1,4-naphtoquinone] | – | – | – | – | – | – | – | – | – | – | – | 5000-fold | – | – | 1000 | 0.034 |
